From paper PMC4192545, “Suramin Inhibits Hsp104 ATPase and Disaggregase Activity” (PLoS ONE, 2014)

Biological target: T1, Hsp104 with Hsp70 and Hsp40 (Saccharomyces cerevisiae, UniProt P31539)
T1 construct: host or cells: E. coli BL21-DE3 RIL (Hsp104)
Assay: Luciferase reactivation with Hsp70, Hsp40 and Hsp104 plus ATP
Format: biochemical
Details: for Normalized Luciferase Refolding Activity: Figure 3D, 70/40/104 (Hsp70 1 µM, Hsp40 1 µM, ATP)
Experimental: Luciferase reactivation was performed as described, [37]. To assemble aggregates, firefly luciferase (50 µM) in luciferase refolding buffer (LRB, 25 mM HEPES-KOH, 7.4, 150 mM KAOc, 10 mM MgAOc, 10 mM DTT) with 6 M urea was incubated at 30°C for 20 min. Luciferase was then rapidly diluted 100-fold into LRB, divided into 100 µL aliquots, snap frozen in liquid N2, and stored at −80°C. For reactivation assays, aggregated luciferase (50 nM) was incubated with Hsp104 (1 µM hexamer), plus 2.6 mM ATPγS, 2.6 mM ATP and an ATP regeneration system (1 mM creatine phosphate, 0.25 µM creatine kinase (Roche Applied Science)) for 90 minutes at 25°C. Luciferase assay system was purchased from Promega. Luciferase activity was assessed by luminescence measured on a Safire^2 microplate reader (Tecan, Männedorf, Switzerland). The half maximal inhibitory concentration (IC50) was calculating by fitting luciferase-refolding data at different Suramin concentrations with Prism (GraphPad Software, Inc., La Jolla, CA).
(A) Urea-denatured firefly luciferase aggregates were incubated for 90 min at 25°C with Hsp104 (1 µM hexamer) plus 1∶1 mixtures of ATP and ATPγS and varying concentrations of GdmCl. Luciferase reactivation was then determined and converted to % WT disaggregase activity in the presence of ATPγS: ATP. Values represent mean ±S.D. (n = 3–6). (B) Reactions were performed as in (A) except varying concentrations of Suramin were used. Values represent mean ±S.D. (n = 6–10). (C) Half maximal inhibitory concentration (IC50) for Suramin-mediated inhibition of Hsp104. IC50 was calculating by fitting luciferase-refolding data at different Suramin concentrations. (D) Reactions were performed as in (A) except that 1∶1 mixtures of ATP and ATPγS were replaced with Hsp70 (1 µM) and Hsp40 (1 µM) plus ATP. The Hsp104 alone condition (yellow bars) was carried out with 1∶1 mixtures of ATP and ATPγS as in (A). Each condition is normalized to the refolding activity in each corresponding condition in the absence of inhibitor.

T1 sequence (P31539 whole entry): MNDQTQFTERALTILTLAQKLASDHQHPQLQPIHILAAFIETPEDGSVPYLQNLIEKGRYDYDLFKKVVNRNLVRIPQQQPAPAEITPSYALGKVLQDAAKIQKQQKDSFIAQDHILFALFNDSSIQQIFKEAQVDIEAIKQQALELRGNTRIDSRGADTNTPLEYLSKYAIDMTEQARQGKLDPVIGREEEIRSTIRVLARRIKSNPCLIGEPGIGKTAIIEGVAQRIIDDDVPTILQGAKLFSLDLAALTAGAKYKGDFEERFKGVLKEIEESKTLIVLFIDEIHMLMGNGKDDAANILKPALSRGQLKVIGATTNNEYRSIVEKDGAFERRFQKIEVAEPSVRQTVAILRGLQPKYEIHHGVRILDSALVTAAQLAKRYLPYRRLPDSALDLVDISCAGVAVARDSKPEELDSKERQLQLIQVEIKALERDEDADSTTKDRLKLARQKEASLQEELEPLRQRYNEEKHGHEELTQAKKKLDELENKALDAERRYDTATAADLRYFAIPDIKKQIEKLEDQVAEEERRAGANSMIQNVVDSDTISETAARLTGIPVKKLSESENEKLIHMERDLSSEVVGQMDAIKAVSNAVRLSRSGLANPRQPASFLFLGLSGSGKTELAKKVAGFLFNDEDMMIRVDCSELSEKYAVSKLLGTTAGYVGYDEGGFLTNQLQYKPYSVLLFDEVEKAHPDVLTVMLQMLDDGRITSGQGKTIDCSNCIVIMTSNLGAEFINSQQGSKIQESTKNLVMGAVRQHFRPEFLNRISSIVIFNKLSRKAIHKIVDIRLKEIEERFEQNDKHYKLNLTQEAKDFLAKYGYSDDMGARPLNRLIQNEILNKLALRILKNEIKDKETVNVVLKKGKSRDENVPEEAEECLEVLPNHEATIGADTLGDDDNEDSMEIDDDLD

With `Cc1ccc(C(=O)Nc2ccc(S(=O)(=O)O)c3cc(S(=O)(=O)O)cc(S(=O)(=O)O)c23)cc1NC(=O)c1cccc(NC(=O)Nc2cccc(C(=O)Nc3cc(C(=O)Nc4ccc(S(=O)(=O)O)c5cc(S(=O)(=O)O)cc(S(=O)(=O)O)c45)ccc3C)c2)c1` [Suramin] the “Normalized Luciferase Refolding Activity” value (Suramin 25 µM) was 0.12, the “Normalized Luciferase Refolding Activity” value (Suramin 100 µM) was 0.03 and the “Rescue of inhibition by Hsp70 and Hsp40” value (disaggregation reaction with Hsp70 and Hsp40) was “not rescued by inclusion of Hsp70 and Hsp40”.
